We go through seven molecules from ChEMBL document CHEMBL4420077, “Synaptojanin-2 inhibitors and uses thereof” (2015).

Activity calls are given as the source filed them. No cut-off for these calls is given here.

The test system of the first assay is MDA-MB-231. The note with it: Homo sapiens, 10 uM.
Description: Inhibition of cell invasion of human MDA-MB-231 cells at 10 uM incubated for 96 hrs by Matrigel based assay
Consider `Cc1cc(=O)c2c(O)cc(O)c([C@@H]3O[C@H](CO)[C@@H](O)[C@H](O)[C@H]3O)c2o1`, for which the inhibition entry was “Active”.

For the molecule `O=C1C[C@@H](c2ccc(O)c(O)c2)Oc2cc(O[C@@H]3O[C@H](CO)[C@@H](O)[C@H](O)[C@H]3O)cc(O)c21`, the inhibition result is “Active”.

Take `C/C(=C\CO[C@@H]1O[C@H](CO)[C@@H](O)[C@H](O)[C@H]1O)C(O)CCC(C)(C)O` (some centres not stated): the inhibition result is “Active”.

With `COc1cc(C2c3c(cc(OC)c(O)c3OC)CC(CO)C2COC2OCC(O)C(O)C2O)cc(OC)c1O` (configuration not stated), the inhibition entry was “Active”.

On to `Cc1c(O)cc2c(c1O)C(=O)[C@H](O)[C@@H](c1ccc(O)c(O)c1)O2`, for which the inhibition result is “Active”.

With `COc1cc(O)cc(O)c1C(=O)c1ccc(O)c(O)c1`, the inhibition entry is “Active”.

The subject of another assay is MDA-MB-231. To be noted: Homo sapiens, 5 mg/kg.
Description: Antitumor activity against GFP-expressing human MDA-MB-231 cells xenografted in SCID mouse assessed as reduction in tumor lung micro-metastasis at 5 mg/kg injected twice per week for 6 weeks
Turning to `O=C(O)CC(CCc1ccccc1)O[C@H]1O[C@@H](CO)[C@H](O)[C@@H](O)[C@@H]1O` (some centres not stated), the inhibition entry was “Active”.
